These results are taken from ChEMBL document CHEMBL5303762, “Data for DCP probe BI-8668” (2023).

Molecules are shown by their SMILES. pKi: −log10 of the molar value.

The target of one test is Histamine H3 receptor (Homo sapiens, UniProt Q9Y5N1). The experiment in a line: GPCRScan assay: inhibition of H3. Also noted: radioligand conc. used [nm] 0.5 – 1.0, parental cells HEK Flp-In.
Test [1] concerns the target Muscarinic acetylcholine receptor M3 (Homo sapiens) (UniProt P20309). Briefly: M3(H)ANTAG Eurofins SafetyScreen44 (BI). Conditions: filed as antagonist, Compound concentration 10.0 uM.
Test [2] concerns the target 5-hydroxytryptamine receptor 1B (Homo sapiens) (UniProt P28222). The settings on record: Compound concentration 10.0 uM.
Test [3] deals with 5-hydroxytryptamine receptor 2A (Homo sapiens) (UniProt P28223). Conditions: Compound concentration 10.0 uM.
Test [4] addresses 5-hydroxytryptamine receptor 2B (Homo sapiens) (UniProt P41595). Conditions: Compound concentration 10.0 uM.
Test [5] concerns the target 5-hydroxytryptamine receptor 5A (Homo sapiens) (UniProt P47898). Conditions: Compound concentration 10.0 uM.
Test [6] concerns the target D(2) dopamine receptor (Homo sapiens) (UniProt P14416). Conditions: Compound concentration 10.0 uM.
Test [7] deals with Mu-type opioid receptor (Homo sapiens) (UniProt P35372). The settings on record: Compound concentration 10.0 uM.
Test [8] deals with Kappa-type opioid receptor (Homo sapiens) (UniProt P41145). The settings on record: Compound concentration 10.0 uM.
Test [9] addresses T1, Alpha-1A adrenergic receptor (Homo sapiens) (UniProt P35348).
T1 sequence (whole entry): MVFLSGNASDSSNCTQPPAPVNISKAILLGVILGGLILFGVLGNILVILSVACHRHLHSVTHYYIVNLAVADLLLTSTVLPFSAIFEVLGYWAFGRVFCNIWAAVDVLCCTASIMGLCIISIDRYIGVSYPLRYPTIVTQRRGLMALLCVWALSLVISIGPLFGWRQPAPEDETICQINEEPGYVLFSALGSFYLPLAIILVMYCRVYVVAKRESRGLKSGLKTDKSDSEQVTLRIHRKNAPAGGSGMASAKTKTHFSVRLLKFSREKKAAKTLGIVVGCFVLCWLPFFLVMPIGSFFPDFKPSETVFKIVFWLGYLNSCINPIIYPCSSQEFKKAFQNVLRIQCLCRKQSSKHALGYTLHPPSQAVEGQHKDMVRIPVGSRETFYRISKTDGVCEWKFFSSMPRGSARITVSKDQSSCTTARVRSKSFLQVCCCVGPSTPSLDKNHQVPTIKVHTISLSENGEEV
Conditions: Compound concentration 10.0 uM.

Test [10] deals with T2, Alpha-2A adrenergic receptor (Homo sapiens) (UniProt P08913).
T2 sequence (whole entry): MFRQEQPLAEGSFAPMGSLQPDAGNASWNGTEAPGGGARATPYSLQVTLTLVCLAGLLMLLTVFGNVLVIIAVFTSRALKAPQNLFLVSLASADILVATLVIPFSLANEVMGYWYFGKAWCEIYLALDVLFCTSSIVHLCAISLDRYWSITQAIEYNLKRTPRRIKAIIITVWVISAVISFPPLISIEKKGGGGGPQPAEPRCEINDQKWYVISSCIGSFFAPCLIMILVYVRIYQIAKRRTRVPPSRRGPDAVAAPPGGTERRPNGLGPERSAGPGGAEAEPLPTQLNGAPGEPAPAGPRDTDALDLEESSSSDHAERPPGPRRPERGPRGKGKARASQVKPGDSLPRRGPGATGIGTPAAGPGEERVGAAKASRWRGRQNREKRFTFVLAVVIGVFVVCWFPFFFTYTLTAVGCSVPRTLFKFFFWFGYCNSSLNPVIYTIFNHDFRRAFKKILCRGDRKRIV
The settings on record: Compound concentration 10.0 uM.

The target in test [11] is Beta-1 adrenergic receptor (Homo sapiens) (UniProt P08588). Conditions: Compound concentration 10.0 uM.
For test [12], the target named is T3, Muscarinic acetylcholine receptor M1 (Homo sapiens) (UniProt P11229).
T3 sequence (whole entry): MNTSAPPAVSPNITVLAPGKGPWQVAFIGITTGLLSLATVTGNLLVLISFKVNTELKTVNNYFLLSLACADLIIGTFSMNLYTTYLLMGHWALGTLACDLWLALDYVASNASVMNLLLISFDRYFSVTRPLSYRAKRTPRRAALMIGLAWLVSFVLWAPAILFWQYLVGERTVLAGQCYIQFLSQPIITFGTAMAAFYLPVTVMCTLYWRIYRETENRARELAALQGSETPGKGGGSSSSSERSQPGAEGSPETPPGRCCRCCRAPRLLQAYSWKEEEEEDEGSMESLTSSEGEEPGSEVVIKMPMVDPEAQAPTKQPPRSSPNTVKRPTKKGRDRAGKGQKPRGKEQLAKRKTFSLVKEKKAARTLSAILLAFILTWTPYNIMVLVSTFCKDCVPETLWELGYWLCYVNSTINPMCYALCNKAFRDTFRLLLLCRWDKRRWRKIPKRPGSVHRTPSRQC
The settings on record: Compound concentration 10.0 uM.

Test [13] has as its target T4, Muscarinic acetylcholine receptor M2 (Homo sapiens) (UniProt P08172).
T4 sequence (whole entry): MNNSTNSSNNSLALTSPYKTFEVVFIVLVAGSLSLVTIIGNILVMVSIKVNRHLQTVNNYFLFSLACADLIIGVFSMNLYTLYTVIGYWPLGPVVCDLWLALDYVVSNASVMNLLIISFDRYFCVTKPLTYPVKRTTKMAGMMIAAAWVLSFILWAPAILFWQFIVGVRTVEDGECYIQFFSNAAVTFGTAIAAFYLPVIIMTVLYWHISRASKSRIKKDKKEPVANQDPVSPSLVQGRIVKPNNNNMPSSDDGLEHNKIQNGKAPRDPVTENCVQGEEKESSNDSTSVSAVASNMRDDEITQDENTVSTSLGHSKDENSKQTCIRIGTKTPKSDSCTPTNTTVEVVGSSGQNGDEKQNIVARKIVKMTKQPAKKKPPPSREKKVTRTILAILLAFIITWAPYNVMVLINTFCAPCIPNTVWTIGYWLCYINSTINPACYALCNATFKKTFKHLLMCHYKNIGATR
The settings on record: Compound concentration 10.0 uM.

For test [14], the target named is Muscarinic acetylcholine receptor M3 (Homo sapiens) (UniProt P20309). The settings on record: Compound concentration 10.0 uM.
Test [15] deals with Muscarinic acetylcholine receptor M4 (Homo sapiens) (UniProt P08173). Conditions: Compound concentration 10.0 uM.
The species entered for a further test is Rattus norvegicus. The settings on record: Compound concentration 10.0 uM.
In test [16] the target is Alpha-1D adrenergic receptor (Homo sapiens) (UniProt P25100). The settings on record: Compound concentration 10.0 uM.
Test [17] addresses Cannabinoid receptor 1 (Homo sapiens) (UniProt P21554). Briefly: CB1(HU)_AGON Eurofins SafetyScreen44 (BI). Conditions: filed as agonist, Compound concentration 10.0 uM.
In test [18] the target is Kappa-type opioid receptor (Homo sapiens) (UniProt P41145). Briefly: KAPPA(KOP)_HU Eurofins SafetyScreen44 (BI). Conditions: Compound concentration 10.0 uM.

Muscarinic acetylcholine receptor M3 (Homo sapiens), sequence (P20309 whole entry, looked up): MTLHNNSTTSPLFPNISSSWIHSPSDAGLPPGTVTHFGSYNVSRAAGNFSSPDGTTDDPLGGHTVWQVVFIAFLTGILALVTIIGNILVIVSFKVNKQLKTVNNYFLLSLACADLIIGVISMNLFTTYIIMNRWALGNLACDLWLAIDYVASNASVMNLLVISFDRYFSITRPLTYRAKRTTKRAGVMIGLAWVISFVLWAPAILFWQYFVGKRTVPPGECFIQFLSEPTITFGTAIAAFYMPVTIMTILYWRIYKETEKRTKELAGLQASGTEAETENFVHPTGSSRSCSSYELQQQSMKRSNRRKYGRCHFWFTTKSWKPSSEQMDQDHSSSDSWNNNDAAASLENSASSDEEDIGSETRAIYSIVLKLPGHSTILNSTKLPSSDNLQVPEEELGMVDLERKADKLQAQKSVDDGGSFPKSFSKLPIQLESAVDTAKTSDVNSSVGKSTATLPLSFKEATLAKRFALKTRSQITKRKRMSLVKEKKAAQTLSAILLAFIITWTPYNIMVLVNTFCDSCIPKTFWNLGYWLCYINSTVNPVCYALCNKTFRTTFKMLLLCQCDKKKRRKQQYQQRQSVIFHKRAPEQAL
Histamine H3 receptor, sequence (Q9Y5N1 whole entry): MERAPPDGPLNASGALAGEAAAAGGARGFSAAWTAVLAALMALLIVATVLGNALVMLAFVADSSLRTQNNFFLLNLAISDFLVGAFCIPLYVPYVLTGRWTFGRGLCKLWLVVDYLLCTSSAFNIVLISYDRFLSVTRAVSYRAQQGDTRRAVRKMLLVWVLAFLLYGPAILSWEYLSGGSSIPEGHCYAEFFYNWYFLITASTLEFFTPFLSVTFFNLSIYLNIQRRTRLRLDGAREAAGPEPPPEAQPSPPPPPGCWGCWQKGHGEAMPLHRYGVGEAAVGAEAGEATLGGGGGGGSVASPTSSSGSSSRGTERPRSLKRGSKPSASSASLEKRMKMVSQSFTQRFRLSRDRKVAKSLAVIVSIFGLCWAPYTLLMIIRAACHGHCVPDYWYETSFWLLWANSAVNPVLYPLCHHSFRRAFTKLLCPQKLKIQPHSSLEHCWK
Kappa-type opioid receptor (Homo sapiens), sequence (P41145 whole entry): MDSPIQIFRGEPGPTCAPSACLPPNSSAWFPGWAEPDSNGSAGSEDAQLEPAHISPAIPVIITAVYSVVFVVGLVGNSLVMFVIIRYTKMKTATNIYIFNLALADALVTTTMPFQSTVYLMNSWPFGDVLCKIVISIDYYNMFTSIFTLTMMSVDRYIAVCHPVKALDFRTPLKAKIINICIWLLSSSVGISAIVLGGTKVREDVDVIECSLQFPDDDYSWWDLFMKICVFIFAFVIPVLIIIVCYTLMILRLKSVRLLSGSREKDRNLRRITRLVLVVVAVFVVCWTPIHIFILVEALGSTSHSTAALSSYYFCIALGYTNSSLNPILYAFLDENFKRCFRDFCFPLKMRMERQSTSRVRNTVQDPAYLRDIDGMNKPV
D(2) dopamine receptor (Homo sapiens), sequence (P14416 whole entry): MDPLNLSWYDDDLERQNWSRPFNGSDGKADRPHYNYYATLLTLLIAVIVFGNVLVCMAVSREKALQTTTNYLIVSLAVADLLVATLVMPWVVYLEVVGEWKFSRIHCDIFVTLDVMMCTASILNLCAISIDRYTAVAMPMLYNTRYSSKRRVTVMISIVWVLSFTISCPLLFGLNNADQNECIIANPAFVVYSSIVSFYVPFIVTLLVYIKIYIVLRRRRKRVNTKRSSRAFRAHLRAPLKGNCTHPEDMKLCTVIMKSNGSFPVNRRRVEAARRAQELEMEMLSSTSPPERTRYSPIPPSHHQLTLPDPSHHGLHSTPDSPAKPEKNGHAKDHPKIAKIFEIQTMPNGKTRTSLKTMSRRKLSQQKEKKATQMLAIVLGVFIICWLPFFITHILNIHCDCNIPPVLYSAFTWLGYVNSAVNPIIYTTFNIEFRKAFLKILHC
Mu-type opioid receptor (Homo sapiens), sequence (P35372 whole entry): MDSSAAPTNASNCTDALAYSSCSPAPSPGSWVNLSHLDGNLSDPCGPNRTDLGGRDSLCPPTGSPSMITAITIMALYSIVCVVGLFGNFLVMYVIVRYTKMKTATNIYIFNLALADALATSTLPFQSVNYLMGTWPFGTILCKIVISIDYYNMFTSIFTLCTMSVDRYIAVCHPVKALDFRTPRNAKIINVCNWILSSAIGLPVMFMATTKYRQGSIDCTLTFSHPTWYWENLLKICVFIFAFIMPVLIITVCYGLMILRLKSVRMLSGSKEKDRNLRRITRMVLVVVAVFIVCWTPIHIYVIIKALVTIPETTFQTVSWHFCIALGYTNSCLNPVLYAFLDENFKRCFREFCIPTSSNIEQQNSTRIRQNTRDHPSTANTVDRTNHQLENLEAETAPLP
Muscarinic acetylcholine receptor M4 (Homo sapiens), sequence (P08173 whole entry): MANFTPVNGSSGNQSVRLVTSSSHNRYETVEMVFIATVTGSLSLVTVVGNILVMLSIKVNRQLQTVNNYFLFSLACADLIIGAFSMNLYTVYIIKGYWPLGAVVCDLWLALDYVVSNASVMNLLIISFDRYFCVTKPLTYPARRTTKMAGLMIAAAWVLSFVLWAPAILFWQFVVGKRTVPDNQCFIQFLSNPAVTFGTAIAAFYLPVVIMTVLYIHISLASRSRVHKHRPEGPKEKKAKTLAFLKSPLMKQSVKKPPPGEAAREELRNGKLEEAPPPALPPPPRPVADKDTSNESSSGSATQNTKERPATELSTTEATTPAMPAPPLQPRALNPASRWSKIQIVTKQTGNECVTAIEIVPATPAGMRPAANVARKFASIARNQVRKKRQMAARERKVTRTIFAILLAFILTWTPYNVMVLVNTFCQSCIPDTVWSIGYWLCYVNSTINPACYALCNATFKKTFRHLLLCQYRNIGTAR
Beta-1 adrenergic receptor (Homo sapiens), sequence (P08588 whole entry, looked up): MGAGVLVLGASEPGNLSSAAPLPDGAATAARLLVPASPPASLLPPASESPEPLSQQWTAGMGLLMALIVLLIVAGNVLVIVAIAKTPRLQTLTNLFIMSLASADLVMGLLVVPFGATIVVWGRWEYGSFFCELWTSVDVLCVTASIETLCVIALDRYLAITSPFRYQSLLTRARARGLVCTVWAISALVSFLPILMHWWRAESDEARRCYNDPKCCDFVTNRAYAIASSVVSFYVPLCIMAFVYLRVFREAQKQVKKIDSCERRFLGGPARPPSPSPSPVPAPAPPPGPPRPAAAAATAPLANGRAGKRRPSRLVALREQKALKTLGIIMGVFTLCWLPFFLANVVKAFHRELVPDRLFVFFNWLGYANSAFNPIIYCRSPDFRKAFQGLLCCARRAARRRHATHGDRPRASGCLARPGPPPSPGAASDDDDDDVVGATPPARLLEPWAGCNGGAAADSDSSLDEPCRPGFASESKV
5-hydroxytryptamine receptor 2B (Homo sapiens), sequence (P41595 whole entry): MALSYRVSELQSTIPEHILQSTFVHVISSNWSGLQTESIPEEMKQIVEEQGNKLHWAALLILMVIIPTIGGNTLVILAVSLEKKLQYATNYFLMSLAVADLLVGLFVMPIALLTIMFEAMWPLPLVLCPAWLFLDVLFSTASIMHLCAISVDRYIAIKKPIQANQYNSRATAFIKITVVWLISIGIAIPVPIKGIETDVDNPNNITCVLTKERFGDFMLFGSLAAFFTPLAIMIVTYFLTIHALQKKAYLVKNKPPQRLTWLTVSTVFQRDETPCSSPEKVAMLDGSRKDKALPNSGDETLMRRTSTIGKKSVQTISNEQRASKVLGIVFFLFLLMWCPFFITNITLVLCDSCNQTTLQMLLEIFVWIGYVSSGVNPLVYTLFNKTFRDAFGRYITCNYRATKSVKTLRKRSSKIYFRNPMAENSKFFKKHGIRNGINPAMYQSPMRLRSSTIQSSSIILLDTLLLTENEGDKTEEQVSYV
Alpha-1D adrenergic receptor (Homo sapiens), sequence (P25100 whole entry): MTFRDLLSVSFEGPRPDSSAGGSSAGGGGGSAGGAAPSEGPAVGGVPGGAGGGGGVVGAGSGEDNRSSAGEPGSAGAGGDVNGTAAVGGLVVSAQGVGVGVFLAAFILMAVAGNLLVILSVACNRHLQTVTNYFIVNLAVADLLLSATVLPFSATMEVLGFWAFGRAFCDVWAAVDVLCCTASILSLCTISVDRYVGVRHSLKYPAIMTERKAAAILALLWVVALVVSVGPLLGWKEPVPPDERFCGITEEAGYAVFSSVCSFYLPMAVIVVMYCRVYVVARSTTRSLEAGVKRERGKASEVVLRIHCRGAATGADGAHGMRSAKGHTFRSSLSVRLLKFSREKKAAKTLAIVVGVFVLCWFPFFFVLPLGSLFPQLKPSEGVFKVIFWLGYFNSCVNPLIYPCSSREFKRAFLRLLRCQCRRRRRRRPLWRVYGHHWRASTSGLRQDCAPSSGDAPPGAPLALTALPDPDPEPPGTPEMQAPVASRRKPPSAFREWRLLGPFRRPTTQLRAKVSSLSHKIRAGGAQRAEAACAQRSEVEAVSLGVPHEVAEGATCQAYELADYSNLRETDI
5-hydroxytryptamine receptor 5A (Homo sapiens), sequence (P47898 whole entry): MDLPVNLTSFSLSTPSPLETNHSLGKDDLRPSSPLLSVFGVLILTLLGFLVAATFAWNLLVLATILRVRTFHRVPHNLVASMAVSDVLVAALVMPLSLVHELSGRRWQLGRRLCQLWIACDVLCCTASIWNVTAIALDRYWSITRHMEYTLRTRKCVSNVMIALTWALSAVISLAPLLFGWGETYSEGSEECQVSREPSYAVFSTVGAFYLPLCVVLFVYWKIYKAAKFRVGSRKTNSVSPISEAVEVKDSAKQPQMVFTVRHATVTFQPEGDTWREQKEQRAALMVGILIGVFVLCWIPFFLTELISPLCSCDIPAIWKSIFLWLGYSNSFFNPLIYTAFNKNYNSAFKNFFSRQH

The term pKi denotes the negative decadic logarithm of the Ki, by convention in mol/L. A word on the inhibition: it is the relative decrease from the control value, in per cent. In the case of `CCn1c(CNC(=O)c2nc(Cl)cnc2N)[n+](CC)c2ccc(C(=O)N(C)CCN(C)C)cc21`, on Histamine H3 receptor (read-out: Ki), the pKi was 6.59. Further, the Ki at Histamine H3 receptor (read-out: pKi (converted)) was 219 nM. In addition, the residual activity in test [1] is 96%. Moreover, the inhibition in [2] is 8.35%; in [3] it was -1.15%; in [4], 7.03%; in test [5] it was -6.08%; in [6], -8.76%; in test [7], 11%. For the same molecule, the inhibition in test [8] was 25.3%; in test [9], -1.19%; in [10], 0.56%; in test [11], 4.25%; in test [12], 10.2%; in test [13], 44.6%. The inhibition in test [14] was 23.3%; in [15], 7.09%; in the test filed under Rattus norvegicus it was -1.51%; in test [16], 1.74%.
In the case of `CCn1c(CNC(=O)c2ncc(C)nc2N)[n+](CC)c2ccc(C(=O)N(C)CN(C)C)cc21`, the residual activity in test [17] is 111%; in [18], 97%.
